{"source": "patent EP0241618A2", "about": "“Phenyl ethanol amine derivative for use as an oncolytic medicament” (ELI LILLY AND COMPANY, priority 1985, dated 1987)", "key": {"6C3HED Lymphosarcoma": {"test_system": "6C3HED Lymphosarcoma", "assay": "In vivo tumor growth inhibition, subcutaneously implanted tumor in mice", "conditions": "intravenous injection twice daily for five days, started the day following inoculation", "description": "(§1) The compound of the above example has been extensively evaluated for oncolytic activity in in vivo laboratory studies. In a typical experiment, laboratory mice were infected by subcutaneous implantation of a tumor tissue in the axillary region of the body. The implantations were accomplished by means of a trocar. Initial tumor size in each animal generally was about 2 square millimeters. Control animals received saline. Tumors were measured using vernier calipers (length and width in mm) following a specified period of treatment. The length and width measurements were converted to tumor weight by the formula: • The percent inhibition of tumor growth was then calculated for each dose level at which the compound was evaluated. Typical tumor systems implanted and against which the compound was evaluated include the CA-755 strain of adenocarcinoma, the M-5 ovarian carcinoma, the 6C3HED lymphosarcoma, the X-5563 plasma cell myeloma, the Lewis lung carcinoma, colon carcinoma-26, and C3H mammary adenocarcinoma.\n(§2) Each test group consisted of ten mice. R-N-(2-phenyl-2-hydroxyethyl)-1,i-dimethyl-3-(4-aminocarbonylphenyl)propylamine hydrochloride was dissolved in 5% aqueous saline and administered twice daily for five days as a 0.2 ml intravenous injection. Treatment was initiated on the day following inoculation of the test animals."}, "[1]": {"test_system": "C3H Mammary Adenocarcinoma", "assay": "In vivo tumor growth inhibition, subcutaneously implanted tumor in mice", "conditions": "intravenous injection twice daily for five days, started the day following inoculation", "description": "as §1, §2"}, "CA-755 Adenocarcinoma": {"test_system": "CA-755 Adenocarcinoma", "assay": "In vivo tumor growth inhibition, subcutaneously implanted tumor in mice", "conditions": "intravenous injection twice daily for five days, started the day following inoculation", "description": "as §1, §2"}, "Lewis Lung Carcinoma": {"test_system": "Lewis Lung Carcinoma", "assay": "In vivo tumor growth inhibition, subcutaneously implanted tumor in mice", "conditions": "intravenous injection twice daily for five days, started the day following inoculation", "description": "as §1, §2"}, "[2]": {"test_system": "X-5563 Plasma Cell Myeloma", "assay": "In vivo tumor growth inhibition, subcutaneously implanted tumor in mice", "conditions": "intravenous injection twice daily for five days, started the day following inoculation", "description": "as §1, §2"}, "Colon Carcinoma-26": {"test_system": "Colon Carcinoma-26", "assay": "In vivo tumor growth inhibition, delayed treatment of established tumor in mice", "conditions": "I.V. injection twice daily for five days, 3 days delay following inoculation", "description": "as §1\n(§3) Table II presents the results of studies carried out substantially as described above, except the treatment regimens were delayed for a short period following inoculation to permit the tumor to become established and start growing. Treatment consisted of I.V. injection of 02 ml of the appropriate amount of R-N-(2-phenyl-2-hydroxyethyl)-1,1-dimethyl-3-(4-aminocarbonylphenyl)propylamine hydrochloride in 5% aqueous saline twice daily for five days. Tumors were then measured as described above and compared with untreated controls."}, "M-5 Ovarian Carcinoma": {"test_system": "M-5 Ovarian Carcinoma", "assay": "In vivo tumor growth inhibition, delayed treatment of established tumor in mice", "conditions": "I.V. injection twice daily for five days, 5 days delay following inoculation", "description": "as §1, §3"}, "cell culture": {"test_system": "cell culture", "assay": "Antimitotic activity in cell culture", "assay_type": "cell-based", "conditions": "concentration at which activity is seen", "from_the_text": "(§4) The potent oncolytic activity of the compound to be employed in the present method of treatment has been established in standard tests designed to evaluate antitumor activity. […] The effect on spindle; microtubules appears to reflect a specific effect on the microtubule organizing center of the spindle, i.e., the centrosomes. These studies have been documented by immunofluorescent light microscopy, transmission electron microscopy and flow cytometric techniques. […] In cell culture, the compound has antimitotic activity at 2.5 u.g/ml and affects mitochondrial function at 0.01 u.g/ml as measured by alterations in Rhodamine 123 binding."}, "[3]": {"test_system": "Chinese hamster ovary cells", "assay": "Cell cycle accumulation in cells grown in low calcium medium", "assay_type": "cell-based", "from_the_text": "as §4"}, "cytoplasmic microtubules": {"test_system": "cytoplasmic microtubules", "assay": "Cell biology studies of microtubules (immunofluorescent light microscopy, transmission electron microscopy, flow cytometry)", "assay_type": "cell-based", "conditions": "appears to affect only the spindle microtubules", "from_the_text": "as §4"}}}
{"smiles": "CC(C)(CCc1ccc(C(N)=O)cc1)NC[C@H](O)c1ccccc1.Cl", "note": "[Compound, R-N-(2-phenyl-2-hydroxyethyl)-1,1-dimethyl-3-(4-aminocarbonylphenyl)propylamine hydrochloride]", "values": [{"measurement": "% Inhibition", "setting": "6C3HED Lymphosarcoma; Dose 20 mg/kg", "value": 11, "unit": "%"}, {"measurement": "% Inhibition", "setting": "6C3HED Lymphosarcoma; Dose 40 mg/kg", "value": 9, "unit": "%"}, {"measurement": "% Inhibition", "setting": "6C3HED Lymphosarcoma; Dose 80 mg/kg", "value": 23, "unit": "%"}, {"measurement": "% Inhibition", "setting": "[1]; Dose 20 mg/kg", "value": 57, "unit": "%"}, {"measurement": "% Inhibition", "setting": "[1]; Dose 40 mg/kg", "value": 95, "unit": "%"}, {"measurement": "% Inhibition", "setting": "[1]; Dose 80 mg/kg", "value": 96, "unit": "%"}, {"measurement": "% Inhibition", "setting": "CA-755 Adenocarcinoma; Dose 10 mg/kg", "value": 79, "unit": "%"}, {"measurement": "% Inhibition", "setting": "CA-755 Adenocarcinoma; Dose 20 mg/kg", "value": 95, "unit": "%"}, {"measurement": "% Inhibition", "setting": "CA-755 Adenocarcinoma; Dose 40 mg/kg", "value": 92, "unit": "%"}, {"measurement": "% Inhibition", "setting": "CA-755 Adenocarcinoma; Dose 80 mg/kg", "value": 95, "unit": "%"}, {"measurement": "% Inhibition", "setting": "Lewis Lung Carcinoma; Dose 20 mg/kg", "value": 35, "unit": "%"}, {"measurement": "% Inhibition", "setting": "Lewis Lung Carcinoma; Dose 40 mg/kg", "value": 68, "unit": "%"}, {"measurement": "% Inhibition", "setting": "Lewis Lung Carcinoma; Dose 80 mg/kg", "value": 81, "unit": "%"}, {"measurement": "% Inhibition", "setting": "[2]; Dose 20 mg/kg", "value": 29, "unit": "%"}, {"measurement": "% Inhibition", "setting": "[2]; Dose 40 mg/kg", "value": 21, "unit": "%"}, {"measurement": "% Inhibition", "setting": "[2]; Dose 80 mg/kg", "value": 65, "unit": "%"}, {"measurement": "% Inhibition", "setting": "Colon Carcinoma-26; Dose 20 (mg/ml)", "value": 30, "unit": "%"}, {"measurement": "Deaths/total mice in group", "setting": "Colon Carcinoma-26; Dose 20 (mg/ml)", "value": "0/10"}, {"measurement": "% Inhibition", "setting": "Colon Carcinoma-26; Dose 40 (mg/ml)", "value": 61, "unit": "%"}, {"measurement": "Deaths/total mice in group", "setting": "Colon Carcinoma-26; Dose 40 (mg/ml)", "value": "1/10"}, {"measurement": "% Inhibition", "setting": "Colon Carcinoma-26; Dose 80 (mg/ml)", "value": 64, "unit": "%"}, {"measurement": "Deaths/total mice in group", "setting": "Colon Carcinoma-26; Dose 80 (mg/ml)", "value": "4/9"}, {"measurement": "% Inhibition", "setting": "M-5 Ovarian Carcinoma; Dose 20 (mg/ml)", "value": 40, "unit": "%"}, {"measurement": "Deaths/total mice in group", "setting": "M-5 Ovarian Carcinoma; Dose 20 (mg/ml)", "value": "0/10"}, {"measurement": "% Inhibition", "setting": "M-5 Ovarian Carcinoma; Dose 40 (mg/ml)", "value": 61, "unit": "%"}, {"measurement": "Deaths/total mice in group", "setting": "M-5 Ovarian Carcinoma; Dose 40 (mg/ml)", "value": "0/10"}, {"measurement": "% Inhibition", "setting": "M-5 Ovarian Carcinoma; Dose 80 (mg/ml)", "value": 81, "unit": "%"}, {"measurement": "Deaths/total mice in group", "setting": "M-5 Ovarian Carcinoma; Dose 80 (mg/ml)", "value": "0/10"}, {"measurement": "minimal effective concentration", "setting": "cell culture", "value": 2.5, "unit": "µg/mL"}, {"measurement": "S-phase accumulation", "setting": "[3]", "value": "causes an S-phase accumulation"}, {"measurement": "effect on cytoplasmic microtubules", "setting": "cytoplasmic microtubules", "value": "no apparent effect"}]}
